Here are results for 20 molecules from patent publication US9204653B2, “5-fluoro pyrimidine derivatives” (DOW AGROSCIENCES LLC, priority 2008, dated 2015).

Test [1] relates to Venturia inaequalis; Bayer Code VENTIN. Put plainly: Apple scab. As to conditions: 24 h, % disease control rating, one day protectant; for pest or weed control at 25 ppm: read-out: VENTIN 1 DP 25 ppm; for pest or weed control at 75 ppm: read-out: VENTIN 1 DP 75 ppm. The test is classed as in vivo.
The test system of test [2] is Cercospora beticola; Bayer Code CERCBE. Description: Leaf spot of sugar beets. The test is classed as in vivo, Cercospora beticola on sugar beets (variety HH-88). As to conditions: 24 h, % disease control rating, one day protectant; for pest or weed control at 25 ppm: read-out: CERCBE 1 DP 25 ppm; for pest or weed control at 75 ppm: read-out: CERCBE 1 DP 75 ppm.
Test [3] concerns Mycosphaerella graminicola; Anamorph: Septoria tritici; Bayer Code SEPTTR. Description: Leaf blotch of wheat, foliar fungicide treatment, one day protectant (1DP) or three day curative (3DC). The test is classed as in vivo, Septoria tritici on wheat plants (variety Yuma). Conditions: Zymoseptoria tritici; for pest or weed control at 25 ppm / pest or weed control at 100 ppm: rating of percent disease control; for pest or weed control at 50 ppm / pest or weed control at 200 ppm: % disease control rating.

Setting [4] is: 24 h, one day protectant, read-out: SETTTR 1DP 25 ppm.
Setting [5] is: 24 h, one day protectant, read-out: SEPTTR 1DP 100 ppm.
The mark [6] stands for this setting: 72 h, three day curative, read-out: SEPTTR 3DC 25 ppm.
[7] abbreviates: 72 h, three day curative, read-out: SEPTTR 3DC 100 ppm.
Setting [8] is: 24 h, one day protectant (1DP), read-out: SETTTR 1DP 25 ppm.
Setting [9] is: 24 h, one day protectant (1DP), read-out: SEPTTR 1DP 100 ppm.
The mark [10] stands for this setting: 72 h, three day curative (3DC), read-out: SEPTTR 3DC 25 ppm.
Where [11] appears, read: 72 h, three day curative (3DC), read-out: SEPTTR 3DC 100 ppm.

Like-named read-outs stand apart in the source and are kept apart here.

With `CC(C)(c1ccccc1)c1cccc(COc2ncc(F)c(N)n2)c1` [Compound 687], the pest or weed control at 25 ppm in test [1] is 26 to 50%; in test [2], 0 to 25%; in test [3] (setting [4]), 26 to 50%; in test [3] (setting [6]) it was 0 to 25%. Moreover, the values for the pest or weed control at 75 ppm in test [1] and in test [2] were 51 to 75% and 0 to 25%, respectively. Further, the pest or weed control at 100 ppm lay in the range of 76 to 100% in test [3] (setting [5]) and 0 to 25% in test [3] (setting [7]).
As to `Fc1ccc(COc2ncc(F)c(NCn3c(-c4cscn4)nc4ccccc43)n2)cc1` [Compound 694], the pest or weed control at 25 ppm lay in the range of 26 to 50% in test [1], 26 to 50% in test [2], 0 to 25% in test [3] (setting [4]) and 0 to 25% in test [3] (setting [6]). The values for the pest or weed control at 75 ppm in test [1] and in test [2] were 51 to 75% and 26 to 50%, respectively. Besides, the pest or weed control at 100 ppm in test [3] (setting [5]) and in test [3] (setting [7]) was 26 to 50% in each case.
As to `Nc1nc(OCc2ccc(Cl)c([N+](=O)[O-])c2)ncc1F` [Compound 707], the pest or weed control at 25 ppm in test [1] was in the range of 51 to 75%; in test [2], 51 to 75%; in test [3] (setting [4]) it was 76 to 100%; in test [3] (setting [6]) it was 76 to 100%. Further, the pest or weed control at 75 ppm in test [1] is 51 to 75%; in test [2], 26 to 50%. Besides, the pest or weed control at 100 ppm in test [3] (setting [5]) and in test [3] (setting [7]) was 76 to 100% throughout.
For `CC(CCOc1ncc(F)c(N)n1)c1ccccc1` (stereo not drawn) [Compound 710], the pest or weed control at 25 ppm in test [1] is 26 to 50%; in test [2], 0 to 25%; in test [3] (setting [4]), 51 to 75%; in test [3] (setting [6]), 51 to 75%. The pest or weed control at 75 ppm in test [1] was 26 to 50%; in test [2], 0 to 25%. Also, the pest or weed control at 100 ppm in test [3] (setting [5]) and in test [3] (setting [7]) was 76 to 100% in each case.
For `Nc1nc(OCCSc2ccc(Cl)cc2)ncc1F` [Compound 719], the pest or weed control at 25 ppm lay within 51 to 75% in test [1], 0 to 25% in test [2] and 0 to 25% in test [3] (setting [4]). For the same molecule, the figures for the pest or weed control at 75 ppm in test [1] and in test [2] were 51 to 75% and 26 to 50%, respectively. In test [3] (setting [5]), the pest or weed control at 100 ppm lay in the range of 51 to 75%.
In the case of `CN(C)/C=N/c1nc(OCc2ccn(C)n2)ncc1F` [Compound 730], the pest or weed control at 25 ppm in test [1] lay in the range of 51 to 75%; in test [2] it was 26 to 50%; in test [3] (setting [4]) it was 76 to 100%; in test [3] (setting [6]) it was 76 to 100%. Besides, the pest or weed control at 75 ppm was 51 to 75% in test [1] and 26 to 50% in test [2]. The pest or weed control at 100 ppm in test [3] (setting [5]) and in test [3] (setting [7]) was 76 to 100% throughout.
As to `COc1ccc(COc2ncc(F)c(/N=C3\CCCCN3C)n2)cc1F` [Compound 732], the pest or weed control at 25 ppm in test [1] is 26 to 50%; in test [2], 26 to 50%; in test [3] (setting [4]), 76 to 100%; in test [3] (setting [6]), 51 to 75%. The pest or weed control at 75 ppm in test [1] and in test [2] was 76 to 100% throughout. Further, the pest or weed control at 100 ppm in test [3] (setting [5]) and in test [3] (setting [7]) was 76 to 100% throughout.
Take `CO/N=C\Nc1nc(OCc2ccc(F)cc2)ncc1F` [Compound 739]: the pest or weed control at 25 ppm in test [1] is 26 to 50%; in test [2] it was 0 to 25%; in test [3] (setting [8]) it was 76 to 100%; in test [3] (setting [10]) it was 76 to 100%. Besides, the values for the pest or weed control at 75 ppm in test [1] and in test [2] were 51 to 75% and 0 to 25%, respectively. Besides, the pest or weed control at 100 ppm in test [3] (setting [9]) and in test [3] (setting [11]) was 76 to 100% throughout.
As to `COc1cccc(COc2ncc(F)c(NCO)n2)c1` [Compound 741], the pest or weed control at 25 ppm in test [1] lay in the range of 51 to 75%; in test [2], 0 to 25%; in test [3] (setting [8]), 26 to 50%; in test [3] (setting [10]) it was 76 to 100%. The results for the pest or weed control at 75 ppm in test [1] and in test [2] were 76 to 100% and 0 to 25%, respectively. Besides, the pest or weed control at 100 ppm in test [3] (setting [9]) and in test [3] (setting [11]) was 76 to 100% each time.
For the molecule `Cn1nc(Oc2ncc(F)c(N)n2)cc1C(F)(F)F` [Compound 764], the pest or weed control at 25 ppm in test [1] is 26 to 50%; in test [2] it was 26 to 50%; in test [3] (setting [8]), 0 to 25%; in test [3] (setting [10]), 0 to 25%. For the same molecule, the values for the pest or weed control at 75 ppm in test [1] and in test [2] were 26 to 50% and 0 to 25%, respectively. Moreover, the pest or weed control at 100 ppm in test [3] (setting [9]) and in test [3] (setting [11]) was 0 to 25% each time.
In the case of `Cc1c(COc2ncc(F)c(N)n2)cnn1C` [Compound 800], the pest or weed control at 25 ppm in test [1], in test [2], in test [3] (setting [8]) and in test [3] (setting [10]) was 76 to 100% each time. Moreover, the pest or weed control at 75 ppm in test [1] and in test [2] was 76 to 100% throughout. Further, the pest or weed control at 100 ppm in test [3] (setting [9]) and in test [3] (setting [11]) was 76 to 100% throughout.
With `Fc1cnc(OCc2cccs2)nc1NCc1ccc2c(c1)OCO2` [Compound 804], in test [1], the pest or weed control at 25 ppm fell in the range of 0 to 25% and the pest or weed control at 75 ppm is 0 to 25%. Besides, in test [2], the pest or weed control at 25 ppm was 0 to 25% and the pest or weed control at 75 ppm was in the range of 0 to 25%. In test [3] (24 h, one day protectant), this molecule gave a pest or weed control at 50 ppm of 26 to 50% and a pest or weed control at 200 ppm of 51 to 75%.
In the case of `Fc1cnc(OCc2cccs2)nc1N1CCOCC1` [Compound 845], in test [1], the pest or weed control at 25 ppm lay within 26 to 50% and the pest or weed control at 75 ppm fell in the range of 26 to 50%. For the same molecule, in test [2], the pest or weed control at 25 ppm was 0 to 25% and the pest or weed control at 75 ppm was 0 to 25%. In test [3] (24 h, one day protectant), this molecule registered a pest or weed control at 50 ppm of 76 to 100% and a pest or weed control at 200 ppm of 76 to 100%.
As to `Cc1cnc(CNc2nc(OCc3ccco3)ncc2F)cn1` [Compound 849], in test [1], the pest or weed control at 25 ppm was in the range of 76 to 100% and the pest or weed control at 75 ppm lay within 51 to 75%. In test [2], the pest or weed control at 25 ppm was in the range of 26 to 50% and the pest or weed control at 75 ppm lay in the range of 26 to 50%. In test [3] (24 h, one day protectant), this molecule displayed a pest or weed control at 50 ppm of 76 to 100% and a pest or weed control at 200 ppm of 76 to 100%.
As for `Fc1cnc(OC2CCCCC2)nc1NCc1ccc(Cl)nc1` [Compound 858], in test [1], the pest or weed control at 25 ppm is 26 to 50% and the pest or weed control at 75 ppm is 0 to 25%. In addition, in test [2], the pest or weed control at 25 ppm was 26 to 50% and the pest or weed control at 75 ppm was 26 to 50%. In test [3] (24 h, one day protectant), the pest or weed control at 50 ppm lay in the range of 0 to 25% and the pest or weed control at 200 ppm fell in the range of 26 to 50%.
For `Fc1cnc(OCc2ccc(OC(F)(F)F)cc2)nc1NCc1cccs1` [Compound 860], in test [1], the pest or weed control at 25 ppm was 26 to 50% and the pest or weed control at 75 ppm is 51 to 75%. In test [2], the pest or weed control at 25 ppm lay in the range of 0 to 25% and the pest or weed control at 75 ppm is 26 to 50%. For the same molecule, in test [3] (24 h, one day protectant), the pest or weed control at 200 ppm fell in the range of 76 to 100%.
In the case of `Fc1ccccc1CNc1nc(OCC(F)(F)F)ncc1F` [Compound 894], in test [1], the pest or weed control at 25 ppm fell in the range of 0 to 25% and the pest or weed control at 75 ppm lay within 26 to 50%. In test [2], the pest or weed control at 25 ppm was in the range of 0 to 25% and the pest or weed control at 75 ppm fell in the range of 0 to 25%. Moreover, in test [3] (24 h, one day protectant), the pest or weed control at 50 ppm was in the range of 0 to 25% and the pest or weed control at 200 ppm was 0 to 25%.
Regarding `Nc1nc(OCCn2cncn2)ncc1F` [Compound 933], in test [1], the pest or weed control at 25 ppm lay within 0 to 25% and the pest or weed control at 75 ppm was 26 to 50%. In test [2], the pest or weed control at 25 ppm was 26 to 50% and the pest or weed control at 75 ppm is 26 to 50%. In test [3] (24 h, one day protectant), this molecule showed a pest or weed control at 50 ppm of 26 to 50% and a pest or weed control at 200 ppm of 51 to 75%.
`Fc1cnc(OC2CCCCC2)nc1N1CCOCC1` [Compound 941]: in test [1], the pest or weed control at 25 ppm fell in the range of 51 to 75% and the pest or weed control at 75 ppm fell in the range of 26 to 50%. Besides, in test [2], the pest or weed control at 25 ppm was in the range of 0 to 25% and the pest or weed control at 75 ppm is 0 to 25%. In test [3] (24 h, one day protectant), this molecule came in with a pest or weed control at 50 ppm of 0 to 25% and a pest or weed control at 200 ppm of 0 to 25%.
On to `Fc1cnc(OCc2ccccn2)nc1NC1CC1` [Compound 952], for which, in test [1], the pest or weed control at 25 ppm lay in the range of 0 to 25% and the pest or weed control at 75 ppm lay within 0 to 25%. Moreover, in test [2], the pest or weed control at 25 ppm was in the range of 0 to 25% and the pest or weed control at 75 ppm fell in the range of 0 to 25%. Further, in test [3] (24 h, one day protectant), the pest or weed control at 200 ppm was 26 to 50%.
